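Test compounds were applied to cells in 96-well plates for 48 hours at 5 doses. GI50 = concentration required for 50% inhibition of growth. At the TGI there is no net growth.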

From PubChem BioAssay (NCI) come the findings set out here.

Among the test systems are HCT-15 colon; HOP-92 NSCLC; KM12 colon; MCF7 breast; PC-3 prostate; SF-295 CNS; SK-MEL-5 melanoma; SK-OV-3 ovarian; U251 CNS; UACC-257 melanoma.
Holding throughout (experiment): NCI tumour cell line growth inhibition, 48 h

For the compound `O=C1CN(c2cccc(Cl)c2)C(=O)CN1CCN1CC(=O)N(c2cccc(Cl)c2)CC1=O`, the TGI with HCT-15 colon, in the assay with HOP-92 NSCLC, with KM12 colon, with MCF7 breast, with PC-3 prostate and in the assay on SF-295 CNS was over 100 µM in each case. Besides, the TGI in the assay on SK-MEL-5 melanoma, in the assay on SK-OV-3 ovarian, in the assay with U251 CNS and with UACC-257 melanoma was over 100 µM in each case.
`CC(=O)CC(OC(C)=O)C1=CCC2C(CC1C)OC(=O)C2C` (stereo not given): the TGI in the assay with HCT-15 colon, in the assay with HOP-92 NSCLC, in the assay with KM12 colon, in the assay with MCF7 breast, in the assay on PC-3 prostate and in the assay on SF-295 CNS was over 100 µM in each case. Moreover, the TGI with SK-MEL-5 melanoma, in the assay with SK-OV-3 ovarian, in the assay on U251 CNS and with UACC-257 melanoma was over 100 µM each time.
For the compound `C/C(=C\CBr)CCC(Br)C(C)(C)Br` (stereo not given), the TGI with HCT-15 colon, in the assay with HOP-92 NSCLC, with KM12 colon, in the assay with MCF7 breast, in the assay with PC-3 prostate and in the assay with SF-295 CNS was over 100 µM throughout. For the same compound, the TGI in the assay on SK-MEL-5 melanoma, in the assay on SK-OV-3 ovarian, in the assay on U251 CNS and in the assay with UACC-257 melanoma was over 100 µM in each case.
Regarding `CCCCCCCCCCn1cc[n+](C)c1`, the GI50 was 17.9 µM with HCT-15 colon; 2.92 µM in the assay with HOP-92 NSCLC; 1.57 µM with KM12 colon; 1.69 µM in the assay with MCF7 breast; 1.03 µM in the assay with PC-3 prostate; 1.39 µM in the assay on SF-295 CNS. Also, the GI50 was 1.17 µM in the assay on SK-MEL-5 melanoma, 2.62 µM with SK-OV-3 ovarian, 1.86 µM in the assay with U251 CNS and 1.81 µM in the assay with UACC-257 melanoma. Besides, the TGI is over 100 µM in the assay with HCT-15 colon; 22.6 µM in the assay with HOP-92 NSCLC; 5.75 µM in the assay with KM12 colon; 13.6 µM with MCF7 breast; 6.73 µM in the assay on PC-3 prostate; 8.43 µM in the assay on SF-295 CNS. Besides, the TGI came out at 2.79 µM in the assay with SK-MEL-5 melanoma, 20.9 µM in the assay on SK-OV-3 ovarian, 19.1 µM with U251 CNS and 9.92 µM in the assay with UACC-257 melanoma.
As for `O=C1CCCCN1c1ccccc1C#C/C=C\C#Cc1ccccc1C(F)(F)F`, the GI50 with HCT-15 colon was 1.53 µM; in the assay with HOP-92 NSCLC, 10.7 µM; with KM12 colon, 1.8 µM; in the assay with MCF7 breast, 2.5 µM; with PC-3 prostate it was 2.32 µM; with SF-295 CNS, 1.11 µM. Also, the GI50 is 2.75 µM in the assay on SK-MEL-5 melanoma, over 50 µM with SK-OV-3 ovarian, 1.52 µM in the assay on U251 CNS and 2.72 µM in the assay on UACC-257 melanoma. Further, the TGI in the assay on HCT-15 colon was 6.05 µM; with HOP-92 NSCLC it was 43.1 µM; in the assay with KM12 colon it was 11.4 µM; in the assay with MCF7 breast, over 50 µM; in the assay with PC-3 prostate, over 50 µM; in the assay on SF-295 CNS it was 3.16 µM. Further, the TGI in the assay with SK-MEL-5 melanoma was 12.7 µM; in the assay on SK-OV-3 ovarian it was over 50 µM; in the assay with U251 CNS, 5.26 µM; in the assay with UACC-257 melanoma it was 18.3 µM.
For `CN(C)c1cc(NN=C(c2ccc(O)cc2)c2ccc(O)cc2)c([N+](=O)[O-])cc1[N+](=O)[O-]`, the GI50 in the assay on HCT-15 colon is 4.02 µM; in the assay with HOP-92 NSCLC, 10.2 µM; in the assay on KM12 colon, 3.73 µM; with MCF7 breast it was 3.42 µM; in the assay with PC-3 prostate it was 4.85 µM; with SF-295 CNS, 1.86 µM. The GI50 with SK-MEL-5 melanoma was 3.17 µM; with SK-OV-3 ovarian, 14.4 µM; with U251 CNS, 5.61 µM; in the assay on UACC-257 melanoma it was 13.4 µM. For the same compound, the TGI was determined as 17.7 µM in the assay on HCT-15 colon; 25.4 µM in the assay on HOP-92 NSCLC; 13.8 µM in the assay on KM12 colon; 16 µM in the assay on MCF7 breast; 32.2 µM in the assay with PC-3 prostate; 5.22 µM in the assay with SF-295 CNS. Also, the TGI with SK-MEL-5 melanoma worked out at 14.4 µM; in the assay on SK-OV-3 ovarian, 36.6 µM; in the assay on U251 CNS it was 18.3 µM; with UACC-257 melanoma, 27.3 µM.
Consider `O=C(O)c1ccc2c(c1C(=O)O)C(=O)OC2(c1ccc(O)cc1)c1ccc(O)cc1`, for which the TGI in the assay with HCT-15 colon, in the assay with HOP-92 NSCLC, with KM12 colon, with MCF7 breast, in the assay on PC-3 prostate and in the assay with SF-295 CNS was over 100 µM each time. Moreover, the TGI in the assay on SK-MEL-5 melanoma, in the assay on SK-OV-3 ovarian, in the assay on U251 CNS and with UACC-257 melanoma was over 100 µM throughout.
With `Nc1ccc(C2=NNC(=O)Cc3cc4c(cc32)OCCO4)cc1Cl`, the GI50 in the assay on HCT-15 colon was 2.49 µM; with HOP-92 NSCLC it was 4.89 µM; in the assay with KM12 colon it was 1.74 µM; in the assay with MCF7 breast, 1.99 µM; with PC-3 prostate, 7.94 µM; in the assay with SF-295 CNS, 2.49 µM. The GI50 in the assay with SK-MEL-5 melanoma is 2.28 µM; with SK-OV-3 ovarian it was 8.1 µM; in the assay on U251 CNS, 3.68 µM; in the assay with UACC-257 melanoma it was 13.3 µM. Moreover, the TGI was over 50 µM in the assay with HCT-15 colon; 49 µM in the assay on HOP-92 NSCLC; over 50 µM in the assay with KM12 colon; over 50 µM in the assay with MCF7 breast; over 50 µM in the assay on PC-3 prostate; over 50 µM in the assay with SF-295 CNS. The TGI in the assay with SK-MEL-5 melanoma, in the assay with SK-OV-3 ovarian, in the assay with U251 CNS and with UACC-257 melanoma was over 50 µM throughout.
